This is an account of results in US20030078251A1, “Benzoxazepinones and their use as squalene synthase inhibitors” (priority 2000, published 2003).

Molecules are shown by their SMILES.

The target of one series is T1, squalene synthase (Homo sapiens, UniProt P37268).
T1 construct: endogenous in cells; host or cells: HepG2 (human hepatic cancer cells); sediment of the 105000 x g centrifugation (microsomal fraction)
T1 sequence (P37268 1-417): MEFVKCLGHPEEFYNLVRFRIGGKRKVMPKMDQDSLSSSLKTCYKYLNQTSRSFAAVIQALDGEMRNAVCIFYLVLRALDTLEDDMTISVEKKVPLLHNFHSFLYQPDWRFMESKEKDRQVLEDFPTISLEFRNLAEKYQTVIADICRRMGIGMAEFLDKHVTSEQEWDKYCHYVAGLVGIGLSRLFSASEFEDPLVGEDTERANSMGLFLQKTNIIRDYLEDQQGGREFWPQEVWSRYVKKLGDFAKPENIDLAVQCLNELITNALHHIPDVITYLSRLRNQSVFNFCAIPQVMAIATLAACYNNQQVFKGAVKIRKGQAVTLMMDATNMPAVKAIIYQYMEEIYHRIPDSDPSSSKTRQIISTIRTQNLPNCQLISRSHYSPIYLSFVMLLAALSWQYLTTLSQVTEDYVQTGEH
In words: Squalene synthase inhibiting activity (Test Example 1). The class given is biochemical. To be noted: enzyme solution from human hepatic cancer cell HepG2; 5 μM [1-3H] farnesyl pyrophosphate, 37° C., 45 minutes; read-out: Inhibiting activity (IC50, 10^−9M). As to the method: Squalene Synthase Inhibiting Activity
The squalene synthase inhibiting activity was measured using an enzyme solution obtained according to a preparing method described below as follows:
That is, an enzyme solution (protein 0.8 μg) prepared according to the following preparing method was added to a solution containing 5 μM [1-^3H] farnesyl pyrophosphate (specific activity […]), 1 mM NADPH (reduced type nicotinamide adenine dinucleotide phosphate), 5 mM MgCl2, 6 mM glutathione, 100 mM potassium phosphate buffer (pH 7.4) and a test drug (added as an aqueous solution or DMSO solution)(total amount 50 μl), which was reacted at 37° C. for 45 minutes. 150 μl of a mixed solution of chloroform and methanol (1:2) was added to stop the reaction, and 50 μl of chloroform and 50 μl of a 3N sodium hydroxide solution were added. 50 μl of the chloroform layer (lower layer) containing the reaction product, a main component of which is squalene, and 3 ml of toluene series liquid scintillator were mixed, and the radioactivity thereof was measured by a liquid scintillation counter.
The squalene synthase inhibiting activity was shown by the concentration at which 50% of the radioactivity […] into the chloroform layer (IC50, molar concentration (M)).
Preparation of Human Enzyme Solution
Human hepatic cancer cell HepG2 (about 1×10^9 cells) was grown in Dulbecco's modified Eagle medium (37° C., in the presence of 5%CO2) containing 10% bovine fetal serum, the resulting cells were suspended in 10 ml of ice-cooled buffer [100 mM potassium phosphate buffer (pH 7.4), 30 mM nicotinamide, 2.5 mM MgCl2], and ruptured by the ultrasonication (30 seconds, 2 times). The resulting sonicate was centrifuged at 10000× g for 20 minutes (4° C.). The resulting supernatant was centrifuged at 105000× g for 90 minutes (4° C.), then the sediment was suspended in an ice-cooled 100 mM potassium phosphate buffer (pH 7.4), and centrifuged again at 105000× g for 90 minutes (4° C.). This was suspended in an ice-cooled 100 mM potassium phosphate buffer (pH 7.4) (protein concentration about 4 mg/ml), which was used as an enzyme solution.

On to `COc1cccc([C@H]2O[C@H](CC(=O)Nc3cccc(CCC(=O)O)c3)C(=O)N(CC(C)(C)C)c3ccc(Cl)cc32)c1OC` [Example 60, 3-[3-[[(3R,5S)-7-chloro-5-(2,3-dimethoxyphenyl)-1-neopentyl-2-oxo-1,2,3,5-tetrahydro-4,1-benzoxazepin-3-yl]acetyl]aminophenyl]propionic Acid], for which the melting point (as a rule, the temperature of the solid-liquid transition) lay in the range of 172 to 173 °C. Further, at squalene synthase, the concentration for half-maximal inhibition (IC50) (commonly the concentration at which inhibition is half-maximal) was 50 nM.

Take `COc1ccc(CCC(=O)O)cc1NC(=O)C[C@H]1O[C@H](c2cccc(OC)c2OC)c2cc(Cl)ccc2N(CC(C)(C)CO)C1=O` [Example 37, 3-[3-[[(3R,5S)-7-chloro-5-(2,3-dimethoxyphenyl)-1-(3-hydroxy-2,2-dimethylpropyl)-2-oxo-1,2,3,5-tetrahydro-4,1-benzoxazepin-3-yl]acetyl]amino-4-methoxyphenyl]propionic Acid]: at squalene synthase, the IC50 amounted to 94 nM.

On to `COc1cccc([C@H]2O[C@H](CC(=O)NC[C@H]3CC[C@H](C(=O)O)CC3)C(=O)N(CC(C)(C)CO)c3ccc(Cl)cc32)c1OC` [Example 23, trans-4-[[(3R,5S)-7-chloro-5-(2,3-dimethoxyphenyl)-1-(3-hydroxy-2,2-dimethylpropyl)-2-oxo-1,2,3,5-tetrahydro-4,1-benzoxazepin-3-yl]acetyl]aminomethyl-1-cyclohexanecarboxylic acid], for which, on squalene synthase, the IC50 came to 99 nM.

Take `COc1cccc([C@H]2O[C@H](CC(=O)NCc3ccc(CC(=O)O)cc3)C(=O)N(CC(C)(C)CO)c3ccc(Cl)cc32)c1OC` [Example 61, 4-[[[(3R,5S)-7-chloro-5-(2,3-dimethoxyphenyl)-1-(3-hydroxy-2,2-dimethylpropyl)-2-oxo-1,2,3,5-tetrahydro-4,1-benzoxazepin-3-yl]acetyl]aminomethyl]phenylacetic acid]: the melting point lay in the range of 129 to 132 °C. Moreover, the IC50 at squalene synthase came out at 21 nM.

As for `COc1cccc([C@H]2O[C@H](CC(=O)NCc3cccc(CCC(=O)O)c3)C(=O)N(CC(C)(C)CO)c3ccc(Cl)cc32)c1OC` [Example 64, 3-[3-[[[(3R,5S)-7-chloro-5-(2,3-dimethoxyphenyl)-1-(3-hydroxy-2,2-dimethylpropyl)-2-oxo-1,2,3,5-tetrahydro-4,1-benzoxazepin-3-yl]acetyl]aminomethyl]phenyl]propionic Acid], the IC50 at squalene synthase worked out at 37 nM.

For `COc1cccc([C@H]2O[C@H](CC(=O)NC[C@H]3CC[C@H](C(=O)O)CC3)C(=O)N(CC(C)(C)COC(C)=O)c3ccc(Cl)cc32)c1OC` [Example 24, trans-4-[[(3R,5S)-1-(3-acetoxy-2,2-dimethylpropyl)-7-chloro-5-(2,3-dimethoxyphenyl)-2-oxo-1,2,3,5-tetrahydro-4,1-benzoxazepin-3-yl]acetyl]aminomethyl-1-cyclohexanecarboxylic acid], on squalene synthase, the concentration for half-maximal inhibition (IC50) came to 170 nM.

`COc1cccc([C@H]2O[C@H](CC(=O)N[C@H](C)C(=O)O)C(=O)N(CC(C)(C)C)c3ccc(Cl)cc32)c1OC` [Example 18, (2R)-2-[[(3R,5S)-7-chloro-5-(2,3-dimethoxyphenyl)-1-neopentyl-2-oxo-1,2,3,5-tetrahydro-4,1-benzoxazepin-3-yl]acetyl]aminopropionic Acid] displayed a melting point of 184 to 186 °C. In addition, the concentration for half-maximal inhibition (IC50) on squalene synthase came out at 10 nM.

Take `CCCS(=O)(=O)NC(=O)C[C@H]1O[C@H](c2cccc(OC)c2OC)c2cc(Cl)ccc2N(CC(C)(C)CO)C1=O` [Example 2, (3R,5S)-N-propanesulfonyl-7-chloro-5-(2,3-dimethoxyphenyl)-1-(3-hydroxy-2,2-dimethylpropyl)-2-oxo-1,2,3,5-tetrahydro-4,1-benzoxazepine-3-acetamide]: the melting point is 135 to 137 °C. Further, the IC50 at squalene synthase amounted to 54 nM.

Consider `COc1cccc([C@H]2O[C@H](CC(=O)NCCc3occc3C(=O)O)C(=O)N(CC(C)(C)CO)c3ccc(Cl)cc32)c1OC` [Example 26, 2-[2-[[[(3R,5S)-7-chloro-5-(2,3-dimethoxyphenyl)-1-(2,2-dimethyl-3-hydroxypropyl)-2-oxo-1,2,3,5-tetrahydro-4,1-benzoxazepin-3-yl]acetyl]amino]ethyl]furan-3-carboxylic acid], for which the melting point was 126 to 129 °C. Moreover, the half-maximal inhibitory concentration (IC50) on squalene synthase was 25 nM.

On to `COc1cccc([C@H]2O[C@H](CC(=O)Nc3cc(CCC(=O)O)ccc3F)C(=O)N(CC(C)(C)CO)c3ccc(Cl)cc32)c1OC` [Example 53, 3-[3-[[[(3R,5S)-7-chloro-5-(2,3-dimethoxyphenyl)-1-(3-hydroxy-2,2-dimethylpropyl)-2-oxo-1,2,3,5-tetrahydro-4,1-benzoxazepin-3-yl]acetyl]amino]-4-fluorophenyl]propionic Acid], for which the melting point is 151 to 152 °C. Moreover, the IC50 on squalene synthase came to 40 nM.

The compound `COc1cccc([C@H]2O[C@H](CC(=O)Nc3cc(CCC(=O)O)ccc3C)C(=O)N(CC(C)(C)CO)c3ccc(Cl)cc32)c1OC` [Example 55, 3-[3-[[(3R,5S)-7-chloro-5-(2,3-dimethoxyphenyl)-1-(3-hydroxy-2,2-dimethylpropyl)-2-oxo-1,2,3,5-tetrahydro-4,1-benzoxazepin-3-yl]acetyl]amino-4-methylphenyl]propionic Acid] registered a melting point of 154 to 155 °C. Further, the IC50 at squalene synthase was 16 nM.

With `COc1cccc([C@H]2O[C@H](CC(=O)NCc3ccoc3C(=O)O)C(=O)N(CC(C)(C)CO)c3ccc(Cl)cc32)c1OC` [Example 30, 3-[[[[(3R,5S)-7-chloro-5-(2,3-dimethoxyphenyl)-1-(2,2-dimethyl-3-hydroxypropyl)-2-oxo-1,2,3,5-tetrahydro-4,1-benzoxazepin-3-yl]acetyl]amino]methyl]furan-2-carboxylic acid], the melting point lay within 125 to 128 °C. Further, on squalene synthase, the IC50 turned out to be 9.1 nM.

Regarding `COc1cccc([C@H]2O[C@H](CC(=O)Nc3cccc(CCC(=O)O)c3)C(=O)N(CC(C)(C)CO)c3ccc(Cl)cc32)c1OC` [Example 35, 3-[3-[[(3R,5S)-7-chloro-5-(2,3-dimethoxyphenyl)-1-(3-hydroxy-2,2-dimethylpropyl)-2-oxo-1,2,3,5-tetrahydro-4,1-benzoxazepin-3-yl]acetyl]aminophenyl]propionic Acid], the melting point fell in the range of 141 to 144 °C. Also, the 50% inhibitory concentration (IC50) at squalene synthase came out at 120 nM.
